# Results published in paper PMC7932521, “2-aminobenzimidazoles for leishmaniasis: From initial hit discovery to in vivo profiling” (PLoS Neglected Tropical Diseases, 2021).
# Like-named read-outs stand apart in the source and are kept apart here.
# What was measured:
# [1] = test system: Leishmania infantum MHOM/MA(BE)/67/ITMAP263 amastigotes; experiment: L. infantum intracellular amastigote assay in PMM; format: cell-based; settings: for IC50: Leishmania infantum, read-out: L. infantum IC50; for SI: selectivity index (CC50 / IC50): CC50 / L. infantum IC50; for potency compared to initial hit 1: L. infantum IC50
# Experimental: (§1) Leishmania infantum MHOM/MA(BE)/67/ITMAP263 amastigotes were collected from the spleen of infected donor Golden hamsters. Primary peritoneal mouse macrophages (PMM) were used as host cells for in vitro assays. PMM were collected from Swiss mice after 2 days of peritoneal stimulation with a 2% suspension of potato starch and maintained in RPMI-1640 medium supplemented with 200 mM L-glutamine, antibiotics and 5% FCS at 37°C and 5% CO2. Promastigotes of L. infantum chagasi (luciferase) (MHOM/BR/2005/NLC) obtained as described in Reimão et al.,[27] were grown in M199 medium supplemented with 10% FCS, 0.25% hemin, 32 μg/ml hygromycin and 2% sterile human urine at 25°C and 5% CO2.
# (§2) Stock solutions of the compounds at 20 mM were prepared in 100% DMSO. Next, the compounds were serially pre-diluted in DMSO followed by a further dilution in demineralized water to assure a final in-test DMSO concentration below 1%. The compounds were tested at 4-fold dilutions starting at 64 μM.
# For the antileishmania in vitro assays, 3×10^4 PMM/well were seeded in 96-well plates. After 24h, 5×10^5 amastigotes/well were added and incubated for 2h at 37°C. Next, the compounds in 4-fold serial dilutions were added and the plates were further incubated for 5 days (37°C, 5% CO2). Parasite burdens were assessed using an inverted microscope after Giemsa staining. The results were expressed as percent reduction in parasite burdens compared to negative control wells (100% growth) and IC50 values were determined. Values represent the geometric mean of at least two independent experiments. Miltefosine was used as the positive control in all plates.
# [2] = test system: PMM (Primary Mouse Macrophages); experiment: Cytotoxicity on primary peritoneal mouse macrophages; format: cell-based; settings: Mus musculus, Macrophage, read-out: PMM IC50
# Experimental: as §1, §2
# MRC-5 cytotoxicity = format: cell-based; settings: human, MRC-5 cells; S1 Data
# [3] = Experimental distribution coefficient (eLogD); format: physicochemical; settings: pH 7.4
# Experimental: To determine the lipophilicity of the compounds, a methodology based on the retention time of molecules in reverse stationary phase (Ascentis RP-Amide HPLC column) was used. The chromatogram was obtained using LC-MS/MS. Test compounds were prepared at 1.0 μg/mL by adding the stock solution at (1:1) mobile phases A:B + internal standard at 200nM (A: 5% methanol in 10mM ammonium acetate pH 7.4, B: 100% methanol), DMSO concentration must be lower than 2%. […] The retention time (in minutes) of each of the eight standards was plotted against their LogD values. The resulting equation for the calibration curve (y = mx + b) was used to calculate the LogD values for the test compounds.
# [4] = Mouse liver microsomal stability; format: in vitro ADME; settings: for microsomal CLint at 0.5 μM: CD1, mouse, liver microsomes, pH 7.4, S1 Data, read-out: MLM CLint
# Experimental: The metabolic stability of the compounds was evaluated in human (pool of 200 donors, XenoTech) and mouse liver microsomes (CD1 mouse, GIBCO). Test compounds were prepared at a concentration of 0.5 μM and incubated with 0.25 mg/mL liver microsomes at pH 7.4 and 37°C. The reaction was started by addition of NADPH at […]. Samples were taken at 0, 5, 10, 15, 20 and 30 minutes. The reaction was stopped by the addition of acetonitrile:methanol (1:1) containing an internal standard (tolbutamide at 50 nM). Compounds were quantified by liquid chromatography triple quadrupole mass spectrometry (LC-MS/MS). Peak area ratios (analyte/internal standard) were converted to % remaining using the area ratio at time 0 as 100%. Half-life (t1/2 = ln(2)/k) in minutes and intrinsic clearance (Clint = k x 1000/(0.25)) in μL/min/mg were calculated using a non-linear regression from % remaining versus incubation time. From this plot, the slope (k) was determined. The analysis conditions were: analytical column (Gemini C18, […], Phenomenex), electrospray ionization source (ESI) in positive and negative mode, mobile phase A (water + 0.1% formic acid) and B (acetonitrile + 0.1% formic acid), flow rate of 0.7 mL/min.
# [5] = Parallel artificial membrane permeability assay (PAMPA); format: in vitro ADME
# Experimental: To determine the passive permeability of the compounds, a 96-well plate containing membranes pre-coated with lipids (Corning Gentest # 353015) was used. The solutions of the compounds were prepared by diluting the stock solutions (10mM) in phosphate buffered saline (PBS) pH 6.5 at a final concentration of 10μM. The solutions diluted in PBS pH 6.5 were then added to the donor portion of the plate (300 μl/well), while PBS pH 7.4 (200 μl/well) was added to the acceptor portion. The two portions of the plate were then coupled, and the system was incubated for 5 h at 37°C. At the end of the incubation, samples were collected from the donor and acceptor plates, and then added to plates containing quench solution (10% water and 90% methanol: acetonitrile (50:50) + 50 nM tolbutamide). The final concentrations of compounds in the donor, acceptor, and initial solution (T0) wells were analyzed using LC-MS/MS. The results were used to calculate an effective permeability (Pe) value. The PAMPA assay was performed in triplicate (n = 3).
# [6] = 120 h, intracellular amastigotes in PMM, 5 days
# [7] = reverse stationary phase HPLC column (Ascentis RP-Amide), S1 Data
# [8] = reverse-phase HPLC retention (Ascentis RP-Amide column), experimental
# [9] = PAMPA, S1 Data, read-out: PAMPA Pe
SMILES,"IC50 [1, 6] [µM]",IC50 ([1]; S1 Data) [µM],IC50 [2] [µM],CC50 (MRC-5 cytotoxicity) [µM],SI: selectivity index (CC50 / IC50) [1],eLogD ([3]; experimental),"chromatographic logD [3, 7]","chromatographic logD [3, 8]",MLM CLint ([4]; mouse liver microsome intrinsic clearance) [µL/min/mg],"Papp at 5 h, 10 μM ([5]; passive permeability, read-out: PAMPA) [×10⁻⁶ cm/s]",microsomal CLint at 0.5 μM [4] [µL/min/mg],"Papp at 5 h, 10 μM [5, 9] [×10⁻⁶ cm/s]",MLM CLint ([4]; S1 Data) [µL/min/mg],potency compared to initial hit 1 [1] [fold]
"Cn1c(NC(=O)Cc2ccc(Cl)cc2)nc2ccccc21 [Compound 17, O=C(Nc1n(C)c(cccc2)c2n1)Cc3ccc(Cl)cc3]",33,32.5,32,> 64,,,,,,,,,,
"Cn1nncc1C(=O)Nc1nc2ccc(C#N)cc2n1CC(F)(F)F [Compound 33, O=C(c1cnnn1C)Nc2nc(ccc(C#N)c3)c3n2CC(F)(F)F]",15,14.8,32,> 64,2,4.0,4,,,,,,,
CCCn1c(NC(=O)Cc2ccc(Cl)cc2)nc2ccccc21 [Compound 1],12,,> 64,,,,,4.6,3094,6.7,,,,
"Cn1nccc1C(=O)Nc1nc2ccc(C#N)cc2n1C1CC1 [Compound 31, O=C(c1ccnn1C)Nc2nc(ccc(C#N)c3)c3n2C4CC4]",30,30,> 64,> 64,2,,,,,,162,14.4,,
"N#Cc1ccc2nc(NC(=O)c3ccnn3C3CC3)n(CC(F)(F)F)c2c1 [Compound 37, O=C(c1ccnn1C2CC2)Nc3nc(ccc(C#N)c4)c4n3CC(F)(F)F]",10,10.1,45.2,3,5,,,,,,,,,
"CCN(CC)CCCn1c(NC(=O)Cc2ccc(F)cc2)nc2ccc(C#N)cc21 [Compound 26, CCN(CC)CCCn1c(cc(C#N)cc2)c2nc1NC(Cc3ccc(F)cc3)=O]",,> 64,> 64,> 64,,,,,,,154,,,
"CCCn1c(NC(=O)Cc2ccc(Cl)cc2)nc2cc(F)ccc21 [Compound 4, CCCn1c(ccc(F)c2)c2nc1NC(=O)Cc3ccc(Cl)cc3]",4.3,4.35,20.2,> 64,5,,4.26,,,,,,1510,
"O=C(Cc1ccc(Cl)cc1)Nc1nc2ccc(F)cc2n1CC(F)(F)F [Compound 23, Fc1cc2c(nc(NC(=O)Cc3ccc(Cl)cc3)n2CC(F)(F)F)cc1]",4.8,4.82,45.2,> 64,,,4.46,,,,,7.07,,
"CCN(CC)CCCn1c(NC(=O)c2ccnn2C)nc2ccc(C#N)cc21 [Compound 52, CCN(CC)CCCn1c(cc(C#N)cc2)c2nc1NC(c3ccnn3C)=O]",57,57,> 64,> 64,1,,,,,,59,,,
"Cn1cc(C(=O)Nc2nc3ccc(C#N)cc3n2CC(F)(F)F)cn1 [Compound 36, O=C(c1cn(C)nc1)Nc2nc(ccc(C#N)c3)c3n2CC(F)(F)F]",8.7,8.74,16,56.1,2,,,,,,,,,
"N#Cc1ccc2nc(NC(=O)c3cnc(C(F)(F)F)nc3)n(CC(F)(F)F)c2c1 [Compound 46, O=C(c1cnc(C(F)(F)F)nc1)Nc2nc(ccc(C#N)c3)c3n2CC(F)(F)F]",1,,4,1.78,4,,,,,,,1.46,,10 to 20
"O=C(Cc1ccc(F)cc1)Nc1nc2cc(F)ccc2n1C1CCNCC1 [Compound 25, O=C(Nc1n(C2CCNCC2)c(c3n1)ccc(F)c3)Cc4ccc(F)cc4]",34,34.4,> 64,> 64,,,3.08,,,,,0.19,,
"CCCn1c(NC(=O)Cc2ccc(Cl)cc2)nc2cc(C(F)(F)F)ccc21 [Compound 7, CCCn1c(ccc(C(F)(F)F)c2)c2nc1NC(Cc3ccc(Cl)cc3)=O]",2,2.01,16,11.2,8,4.7,4.69,,,,,,283,6
"Cc1ccc(C(=O)Nc2nc3ccc(C#N)cc3n2CC(F)(F)F)cn1 [Compound 42, O=C(c1ccc(C)nc1)Nc2nc(ccc(C#N)c3)c3n2CC(F)(F)F]",4.7,4.65,8,> 64,2,,,,,,,13.2,,
"CC(C)(C)Cn1c(NC(=O)Cc2ccc(C(F)(F)F)cc2)nc2ccccc21 [Compound 20, CC(Cn1c(cccc2)c2nc1NC(Cc3ccc(C(F)(F)F)cc3)=O)(C)C]",8.2,8.18,22.6,> 32,,,,4.9,,,,,,
"CCCn1c(NC(=O)Cc2ccc(Cl)cc2)nc2ccc(F)cc21 [Compound 3, CCCn1c(cc(F)cc2)c2nc1NC(=O)Cc3ccc(Cl)cc3]",2.9,2.94,12.7,56.7,4,,4.31,,,,,,1590,
